One data set deals with HT-29 tumor. Put plainly: Biodistribution of [^111In]ITDA2 in HT-29 tumor cancer-bearing mouse. The data set is classed as in vivo. Particulars: from Tables 8 and 9. The procedure: HT-29 cells (5×10^6 cells/mouse) and MDA-MB-231 cells (1×10^7 cells/mouse) were subcutaneously inoculated into the left shoulders of 5-week old male BALB/c nude mice, respectively, and the mice were used when the tumor diameter reached 6 to 10 mm. A saline solution (100 μL) in which [^111In]ITDA2 (40 kBq) had been dissolved was administered to each of the HT-29 tumor or MDA-MB-231 tumor cancer-bearing mice (n=5) via the tail vein. The HT-29 tumor cancer-bearing mice were slaughtered after the lapse of 1, 4, 8, and 24 hours from the administration, the MDA-MB-231 tumor cancer-bearing mouse was slaughtered after the lapse of 24 hours from the administration, and the blood, spleen, pancreas, stomach, intestines, kidney, liver, heart, lungs, brain, tumor, and muscle were recovered from each of the mice. The weight of each organ was measured, and the amount of radioactivity in each organ was measured by using a gamma counter. The accumulation of radioactivity in each organ except for stomach was expressed by % injected dose/g organ obtained by dividing the ratio of the amount of radioactivity of each organ to the administered amount of radioactivity by the organ weight. The stomach was expressed by % injected dose.

The target in data set [1] is T1, CA-IX (Homo sapiens, UniProt Q16790). The data set is described as follows: In vitro autoradiography of tumor sections using [^123I]HIC205. It counts as binding. More on the design: Fresh-frozen sections (each 14 μm) were prepared from a tumor having a tumor volume of around 200 mm^3; from tissue. The procedure:
Fresh-frozen sections (each 14 μm) were prepared from a tumor having a tumor volume of around 200 mm^3, and then the prepared fresh-frozen sections were sufficiently air dried. The dried fresh-frozen sections were immersed in Tris-buffered saline (TBS), and then immersed in a TBS adjusted so as to have 5 kBq/ml of [^123I]HIC205 and a solution containing 400 μM acetazolamide in the TBS (both contained 0.1% dimethyl sulfoxide (DMSO)), and both the sections were incubated at the same time (at 37° C. for 30 minutes). After that, the resultant sections were washed with TBS and 40% ethanol (EtOH)-containing TBS, respectively, and then air dried. The air-dried sections were each brought into contact with an imaging plate (IP), and were read out by a bioimaging analyzer BAS2000 (manufactured by FUJIFILM Corporation). The section used for autoradiography (ARG) was directly subjected to immunohistochemistry that was performed by using a goat-derived anti-CA-IX antibody.
The localization of the radioactivity of [^123I]HIC205 and the difference in the binding of [^123I]HIC205 between the individual treatments are shown FIG. 1.
The results of the comparison of the localization of the radioactivity of [^123I]HIC205 with the expression of CA-IX are shown in FIGS. 2A and 2B. […] The region between two arrows indicates the part where the binding of [^123I]HIC205 and the expression of CA-IX are not consistent. Further, FIG. 2B is an enlarged view showing the region between the two arrows of the result of immunohistochemical staining of animal B shown in the lower left of FIG. 2A, in which the result of immunohistochemical staining of FIG. 2A was shown on the left side, and an enlarged view of the region between the two arrows was shown on the right side. The parts indicated by the arrows indicate the overlap of the section.

In data set [2] the target is T1, CA-IX. The data set is described as follows: Affinity of non-radioactive HIC205 for CA-IX measured by Biacore. It counts as binding. More on the design: purchased R&D Systems Inc. The procedure:
The affinity was measured by using Biacore (manufactured by GE Healthcare). Human CA-IX (manufactured by R&D Systems Inc.) was immobilized on a sensor chip (CM7) by an amino coupling method. After non-radioactive HIC205 was dissolved in 100% dimethyl sulfoxide (DMSO), the obtained solution was diluted with a running buffer in a stepwise manner by 10 times, and a non-radioactive HIC205 solution containing 0.1% DMSO was finally prepared. Based on this, a 2-fold dilution series was prepared with the running buffer containing 0.1% DMSO, and the measurement was performed. In this regard, the composition of the running buffer was 0.01 M HEPES (pH 7.4), 0.15M sodium chloride, and 0.005% v/v Surfactant P20. The sensorgram obtained from each concentration was directly curve fitted by a non-linear least-squares method, and the affinity was calculated.

Broadly, the Kd is the free concentration of one partner at which half of the binding sites on the other are occupied at equilibrium, for simple one-to-one binding.

Consider `NS(=O)(=O)c1nn2cc(-c3ccc(NC(=O)CN4CCN(CC(=O)O)CCN(CC(=O)Nc5ccc(-c6cn7nc(S(N)(=O)=O)sc7n6)cc5)CCN(CC(=O)O)CC4)cc3)nc2s1` [ITDA2, 2,2′-(4,10-bis(2-oxo-2-((4-(2-sulfamoylimidazo[2,1-b][1,3,4]thiadiazol-6-yl)phenyl)amino)ethyl)-1,4,7,10-tetraazacyclododecan-1,7-diyl) diacetic acid], for which, in the data set with HT-29 tumor, the “Tumor accumulation compared with ITDA1” value is given as “lower values as compared with those of ITDA1”, the “Tumor/blood ratio compared with ITDA1” value is listed as “lower values as compared with those of ITDA1” and the “Tumor/muscle ratio compared with ITDA1” value is listed as “almost the same value as that of ITDA1”.

Turning to `NS(=O)(=O)c1nn2cc(-c3ccc([123I])cc3)nc2s1` [[^123I]HIC205], the “Binding on the tumor section with simultaneous incubation with acetazolamide” value at CA-IX [1] (400 μM acetazolamide) was “decreased”. The “Binding on the tumor section (autoradiogram)” value on CA-IX [1] (5 kBq/ml, 37° C. for 30 minutes, washed with TBS) was “confirmed with contrast on the tumor section”. In addition, the “Localization of the radioactivity after washing the section with 40% ethanol” value at CA-IX [1] (40% ethanol-containing TBS wash) was “significantly reduced”. Moreover, on CA-IX [1] (conclusion of autoradiography), the “Binding ability to CA-IX” value is given as “has binding ability to CA-IX”. Further, at CA-IX [1] (two animals), the “Localization of radioactivity compared with expression site of CA-IX (immunohistochemical staining)” value was “mostly consistent”.

Consider `NS(=O)(=O)c1nn2cc(-c3ccc(I)cc3)nc2s1` [non-radioactive HIC205, 6-(4-iodophenyl)imidazo[2,1-b][1,3,4]thiadiazole-2-sulfonamide], for which, on CA-IX [2] (immobilized human CA-IX, n = 1), the Kd was 0.109 nM. For the same molecule, the “Dissociation constant (×10^−3)” value at CA-IX [2] (n = 1) is 0.903 ×10^−3 [1/s]. Further, the kon at CA-IX [2] (n = 1, read-out: Binding constant (×10^5)) is 8.31e+06 M⁻¹ s⁻¹.

These data come from US20210322582A1, “RADIOACTIVE IMIDAZOTHIADIAZOLE DERIVATIVE COMPOUND” (Nihon Medi-Physics Co., Ltd., priority 2018, published 2021).
